One may read the IC50 as the concentration at which inhibition is half-maximal.

Molecules are shown by their SMILES. ≈ marks a conversion by molar mass, not a printed value. Calls of active or inactive are those of the source. The rule behind the calls is not given here. A value given as a limit tells only on which side of the number the result lay.

What all share (assay type): functional, organism-based
Experiment [1] concerns Mus musculus. The experiment can be described thus: Compound was evaluated for the blood-schizonticidal antimalarial activity against Plasmodium yoelii nigeriensis (multidrug-resistant strain) in mice (Mus musculus) at 50 mg/kg/day x 4 (oral); indicates that all of the treated animals show negative parasitaemia up to D+7(survival=4/6).
The test system of experiment [2] is Plasmodium falciparum. The experiment can be described thus: Inhibitory activity I50 against chloroquine-sensitive Plasmodium falciparum.
For experiment [3], the system named is Mus musculus. The experiment can be described thus: Compound was evaluated for the blood-schizonticidal antimalarial activity against Plasmodium yoelii nigeriensis (multidrug-resistant strain) in mice (Mus musculus) at 100 mg/kg/day x 4 (oral); indicates complete elimination of malaria parasites from the body, and animalssurvive up to day D.
The test system of experiment [4] is Mus musculus. The experiment can be described thus: Compound was evaluated for the blood-schizonticidal antimalarial activity against Plasmodium berghei (sensitive strain) in mice (Mus musculus) at 10 mg/kg/day x 4 (oral); indicates that all of the treated animals show negative parasitaemia up to D+7 (survival=4/6).
For experiment [5], the system named is Mus musculus. The experiment can be described thus: Compound was evaluated for the blood-schizonticidal antimalarial activity against Plasmodium berghei (sensitive strain) in mice (Mus musculus) at 100 mg/kg/day x 4 (oral); indicates complete elimination of malaria parasites from the body, and animals survive up to day D+60 (survival=6/6).
In experiment [6] the test system is Mus musculus. The experiment can be described thus: Compound was evaluated for the blood-schizonticidal antimalarial activity against Plasmodium berghei (sensitive strain) in mice (Mus musculus) at 50 mg/kg/day x 4 (oral); indicates complete elimination of malaria parasites from the body, and animals survive up to day D+60 (survival=6/6).
The test system of experiment [7] is Mus musculus. The experiment can be described thus: Compound was evaluated for the blood-schizonticidal antimalarial activity against Plasmodium berghei (sensitive strain) in mice (Mus musculus) at 25 mg/kg/day x 4 (oral); indicates complete elimination of malaria parasites from the body, and animals survive up to day D+60 (survival=6/6).
The test system of experiment [8] is Mus musculus. The experiment can be described thus: Compound was evaluated for the blood-schizonticidal antimalarial activity against Plasmodium yoelii nigeriensis (multidrug-resistant strain) in mice (Mus musculus) at 100 mg/kg/day x 4 (oral); indicates that the treated animals show positive parasitaemia either on D+4 orD+7 and usually die by D+14 (survival=0/6).

The subject of experiment [9] is Mus musculus. The experiment can be described thus: Compound was evaluated for the blood-schizonticidal antimalarial activity against Plasmodium berghei (sensitive strain) in mice (Mus musculus) at 100 mg/kg/day x 4 (oral); indicates that the treated animals show positive parasitaemia either on D+4 or D+7 and usually dieby D+14 (survival=0/6).
Experiment [10] concerns Plasmodium falciparum. The experiment can be described thus: Inhibitory concentration against chloroquine-sensitive Plasmodium falciparum.

Take `COc1cc(NC(C)CCCN)c2nc(C(C)(C)C)ccc2c1` (configuration not stated): the Antimalarial activity result in [1] and in experiment [4] was “Active” each time. Moreover, the midpoint of inhibition in experiment [2], the IC50, lay at 0.0391 µg/mL (≈ 0.124 µM). Also, the Antimalarial activity result in experiment [3], in experiment [5], in [6] and in [7] was “Curative” in each case.

Consider `COc1cc(NC(C)CCCN)c2ncccc2c1` (configuration not stated), for which the Antimalarial activity result in experiment [8] and in experiment [9] was “inactive” each time.

`COc1cc(NC(C)CCCN)c2nc(C34C[C@H]5C[C@@H](C3)C[C@@H](C4)C5)ccc2c1` (some centres not stated): the Antimalarial activity result in experiment [8] and in experiment [9] was “inactive” throughout. The IC50 in experiment [10] was over 0.5 µg/mL.

The values above are taken from ChEMBL document CHEMBL1148375, “Discovery of a bulky 2-tert-butyl group containing primaquine analogue that exhibits potent blood-schizontocidal antimalarial activities and complete elimination of methemoglobin toxicity” (J Med Chem, 2004).
